Results from article PMC12473165, “Theranostic Potential of a New ^64Cu-Labeled NOTA-R954 Peptide Conjugate for Kinin B1R Expressing Prostate Cancer” (Pharmaceutics, 2025).
Several values for one entry are separate records, joined by “and”; a condition that tells them apart may be missing. Identical values can stand only once. Square brackets hold non-standard residues; d marks the D form. Peptide text beside a SMILES is read from it. * marks the point of attachment. NOTA = O=C(O)CN1CCN(CC(=O)O)CCN(CC(=O)*)CC1; Oic = O=C(O)[C@@H]1C[C@@H]2CCCC[C@@H]2N1; d2Nal = N[C@H](Cc1ccc2ccccc2c1)C(=O)O; αMeF = C[C@](N)(Cc1ccccc1)C(=O)O; Orn = NCCC[C@H](N)C(=O)O; βAla = NCCC(=O)O

Tests used:
hB1R [1] = biological target: T1, hB1R (Homo sapiens, UniProt P46663); assay: Radioligand competition binding on HEK293 cells stably expressing hB1R; parameters: expressed in transfected cells; host or cells: QBI-HEK293A (lentiviral transduction, puromycin selection); settings: hB1R-stably expressing HEK293 cells, means of two independent experiments
T1 sequence (P46663 1-353): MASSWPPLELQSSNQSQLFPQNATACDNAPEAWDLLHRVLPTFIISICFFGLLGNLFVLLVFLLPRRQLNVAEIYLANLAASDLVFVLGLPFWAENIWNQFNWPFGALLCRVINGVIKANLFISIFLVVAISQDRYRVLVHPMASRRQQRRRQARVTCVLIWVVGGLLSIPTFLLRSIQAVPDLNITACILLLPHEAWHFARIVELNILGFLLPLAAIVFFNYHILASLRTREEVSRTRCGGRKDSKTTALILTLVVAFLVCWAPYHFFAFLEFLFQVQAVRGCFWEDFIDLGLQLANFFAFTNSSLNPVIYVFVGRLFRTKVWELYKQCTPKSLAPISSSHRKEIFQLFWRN

hB1R [2] = biological target: T1, hB1R; assay: NFAT-eGFP reporter assay in CHO-hB1R-NFAT-eGFP cells; type: cell-based; parameters: expressed in transfected cells; host or cells: CHO (hB1R-expressing line, then transduced with NFAT-eGFP reporter); settings: means of two independent experiments; for EC50: hB1R-stably expressing CHO-NFAT-eGFP cells, agonist potency, 16 h stimulation, read-out: CHO-NFAT EC50 (Table S2); for IC50: hB1R-stably expressing CHO-NFAT cells, antagonist potency, read-out: CHO-NFAT IC50 (Table S1)
Source text: The pLenti-6V5-NFAT-eGFP vector was generated from the pSIRV-NFAT-eGFP vector (a gift from Peter Steinberger, Addgene plasmid #118031). Briefly, NFAT-eGFP gene was PCR amplified using the following primers: 5′-[…]-3′ and 5′-[…]-3′). The amplified gene was then ligated into the ClaI and AgeI restriction sites of the pLenti-6V5 vector. Lentiviruses were produced using the pLenti-6V5-NFAT-eGFP vector in HEK293T cells and used to transduce a hB1R-expressing CHO cell line, followed by selection with 10 µg/mL blasticidin. […] Clones were grown in 4000 nanowells/well in 24-well plates and re-plated into 96-well plates after initial expansion via the ALS CellCelector™ (Sartorius Corporation, Bohemia, NY, USA). After clonal expansion, individual cell lines were evaluated based on their ratio of stimulated fluorescence to basal expression to determine maximum sensitivity.
Fluorescence assays performed on CHO-hB1R-NFAT-eGFP cells. Target cells were plated at 10,000 cells/well in a 96-well microplate (opaque black wells with clear flat bottom, Thermo Scientific, Rockford, IL, USA) using RPMI 1640 medium with 10% fetal bovine serum (FBS). After 24 h, the medium was replaced by RPMI without FBS and phenol red. […] Fluorescence was measured using a TECAN M1000 (Tecan Group Ltd., Männedorf, Switzerland) multimode microplate reader with excitation at 488 nm and emission at 507 nm. Each data point represents a ratio of two values, divided by the average fluorescence of six control wells. […] Antagonist affinity (Kb) was estimated from functional inhibition curves using the Gaddum (Schild) equation assuming competitive antagonism at human B1R: Kb = [B]/(dose-ratio–1), where [B] is the antagonist concentration, and the dose ratio is EC50 + Compound/EC50.

[3] = mouse, in vivo, iv
Method: To perform ex vivo biodistribution studies, radiolabeled peptides (5–10 MBq; 100 μL) were administered to isoflurane-anaesthetized normal male Balb/c mice through caudal vein injection. Organs were collected 1 h and 4 h post-injections from CO2 inhalation-euthanized animals and were washed, weighted, and radioactivity measured in a gamma counter (Cobra II auto-gamma counter, Packard). The percentage of injected dose per gram of tissue (%ID/g) was then calculated, accounting for decay correction, using external ^64Cu standards. Biodistribution of the radiolabeled peptides was also performed in PCa tumor-bearing nude mice using micro-PET imaging performed on a 7.5 cm axial and 10 cm transaxial field of view LabPET8 small-animal scanner (Gamma Medica-IDEAS Inc., Northridge, CA, USA) in combination with X-ray computer tomography (CT) (MILabs U-CT system, Utrecht, The Netherlands). For this, radiolabeled peptides (6–9 MBq in 200 μL) were delivered by tail-vein injection to isoflurane-anaesthetized mice. PET scans composed of 30 min static acquisition were acquired at 1 h and 20 h after injection. […] To quantify the tumor uptake of the radiotracer, a volume of interest (VOI) was drawn around the center of the tumor. The uptake was determined as the means of the VOI voxels having intensity in the upper quartile.

PC3 xenografts = assay: Peptide receptor radionuclide therapy (PRRT) in PC3 xenograft-bearing mice; type: in vivo, mouse; settings: nude mice with s.c. PC3 xenografts, single IV dose 50 µg/kg; 65 MBq
Method: Male Nu/Nu nude mice (Crl:NU-Foxn1nu: 4–6 weeks old, Charles River Laboratories, Inc., Wilmington, MA, USA) were subcutaneously (s.c.) inoculated into one or both lower flanks with PCa cells. LNCap cells (10 x 10^6) and PC3 cells (2.5 × 10^6) were suspended in 0.2 mL of a 1:1 (v/v) mixture of antibiotic-free DMEM medium and Matrigel (#356234, Sigma-Aldrich) for injection. Within 10–21 days post-inoculation, solid palpable prostate tumors had developed, and the animals were used for biodistribution, PET imaging, and radiotherapy studies. […]
Therapeutic efficacies of agents were investigated in PC3 xenograft-bearing mice. […] Tumor growth was monitored with a digital vernier caliper using the following formula: length × width^2. The weight of the mice was monitored throughout the study. […] Tumor growth was normalized by calculating the ratio of the tumor volume at each time point to the initial tumor volume measured prior to treatment. […]. […]
Retrieved subcutaneous tumors (5 μm thick sections) were evaluated by H&E and semiquantitative IHC staining of B1R, Ki67 (proliferation), cleaved caspase 3 (apoptosis), CD34 (angiogenesis), and LYVE-1 (lymphangiogenesis). […] Positive Ki67 staining was determined by the nucleus count (Ki-67+ cells/total cells) in sampled fields. […]

[4] = binding affinity of agonists, read-out: HEK293 IC50 (Table S2)
[5] = binding affinity, read-out: HEK293 IC50 (Table S1)

Row | IC50 (hB1R [1]; [4]) | EC50 (hB1R [2]) | IC50 (hB1R [1]; [5]) | IC50 (hB1R [2]) | SMILES | other results
1 | 40 nM | 41 nM | – | – | CNCC(=O)N[C@@H](CCCCNC(=O)CN1CCN(CC(=O)O)CCN(CC(=O)O)CC1)C(=O)N[C@@H](CCCNC(=N)N)C(=O)N1CCC[C@H]1C(=O)N1CCC[C@H]1C(=O)NCC(=O)N[C@@H](Cc1ccccc1)C(=O)N[C@@H](CO)C(=O)N1CCC[C@H]1C(=O)N[C@H](Cc1ccccc1)C(=O)O [MAB8066] | –
2 | – | – | – | – | CC[C@H](C)[C@H](NC(=O)[C@@H](Cc1ccc2ccccc2c1)NC(=O)[C@H](CO)NC(=O)[C@](C)(Cc1ccccc1)NC(=O)CNC(=O)[C@@H]1CCCN1C(=O)[C@@H]1C[C@@H]2CCCC[C@@H]2N1C(=O)[C@H](CCCNC(=N)N)NC(=O)[C@H](CCCN)NC(=O)CCNC(=O)CN1CCN(CC(=O)O)CCN(CC(=O)O)CC1)C(=O)O [^64Cu/NOTA-βAla-R954, metal not drawn] ({NOTA-βAla}-[Orn]R[Oic]PG[αMeF]S[d2Nal]I-OH) | clearance from the bloodstream [3]: rapid clearance; observable toxicity (body weight) (PC3 xenografts): did not induce any observable toxicity
3 | – | – | 5 nM | 0.4 nM | CC[C@H](C)[C@H](NC(=O)[C@@H](Cc1ccc2ccccc2c1)NC(=O)[C@H](CO)NC(=O)[C@](C)(Cc1ccccc1)NC(=O)CNC(=O)[C@@H]1CCCN1C(=O)C1CC2CCCCC2N1C(=O)[C@H](CCCNC(=N)N)NC(=O)[C@H](CCCN)NC(=O)CN1CCN(CC(=O)O)CCN(CC(=O)O)CC1)C(=O)O (stereo partly shown) [MAB7020] | –
4 | – | – | 13 nM | 9.8 nM and 10 nM | CC[C@H](C)[C@H](NC(=O)[C@@H](Cc1ccc2ccccc2c1)NC(=O)[C@H](CO)NC(=O)[C@](C)(Cc1ccccc1)NC(=O)CNC(=O)[C@@H]1CCCN1C(=O)[C@@H]1C[C@@H]2CCCC[C@@H]2N1C(=O)[C@H](CCCNC(=N)N)NC(=O)[C@H](CCCN)NC(=O)CN1CCN(CC(=O)O)CCN(CC(=O)O)CC1)C(=O)O (natCu complex, metal not drawn) [MAB7090] | –
5 | 2.3 nM | 2.2 nM | – | – | N=C(N)NCCC[C@H](NC(=O)[C@H](CCCCN)NC(=O)CCNC(=O)CN1CCN(CC(=O)O)CCN(CC(=O)O)CC1)C(=O)N1CCC[C@H]1C(=O)N1CCC[C@H]1C(=O)NCC(=O)N[C@@H](Cc1ccccc1)C(=O)N[C@@H](CO)C(=O)N1CCC[C@H]1C(=O)N[C@H](Cc1ccccc1)C(=O)O [MAB2047] | –
